Test system: KSHV genome replication in BCBL-1 cells
Assay: Relative viral genomic copy number (latency) by qPCR in BCBL-1 cells
Format: cell-based
Conditions: Fig. S1F, 100 μM, 48 h

Q: What does the source list for Ac-YGRKKRRQRRRGGVNQSASQSSN-NH2 [p8]?
A: Relative viral genomic copy number (replicate 1): 1.16; Relative viral genomic copy number (replicate 2): 1.11; Relative viral genomic copy number (replicate 3): 0.96

From article PMC12047801, “Disrupting the OTUD4-USP7 deubiquitinase complex to suppress herpesvirus replication: a novel antiviral strategy” (PLOS Pathogens, 2025)
